Here are results for 2 compounds from doi:10.1101/2024.06.04.597308v2 (biorxiv, 2024).

Changes are numbered by the printed parent chain.

Assay in all cases: isothermal titration calorimetry
Holding throughout (type): binding
Background: Isothermal titration calorimetry measures the heat released or taken up as one component is titrated into another.

Test [1] has as its target T1, 3β-OH-Δ^5-6-cholesterol-5β-reductase (5βChR); putative cholesterol dehydrogenase (Limosilactobacillus fermentum, UniProt A0ABF7R4H0, F190A).
T1 sequence (A0ABF7R4H0 1-249 F190A): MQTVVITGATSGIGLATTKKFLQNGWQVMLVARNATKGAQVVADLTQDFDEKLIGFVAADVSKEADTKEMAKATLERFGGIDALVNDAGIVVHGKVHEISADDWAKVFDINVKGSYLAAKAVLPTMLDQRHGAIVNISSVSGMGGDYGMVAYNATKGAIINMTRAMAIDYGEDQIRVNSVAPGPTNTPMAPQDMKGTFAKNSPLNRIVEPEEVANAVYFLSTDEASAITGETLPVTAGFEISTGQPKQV
The conditions noted are these: NADP+ titration; C-terminal substrate-pocket mutant.

Test [2] addresses T2, 3β-OH-Δ^5-6-cholesterol-5β-reductase (5βChR); putative cholesterol dehydrogenase (Limosilactobacillus fermentum, UniProt A0ABF7R4H0, M189A).
T2 sequence (A0ABF7R4H0 1-249 M189A): T1 sequence (A0ABF7R4H0 1-249 F190A) with M189A, A190F
The conditions noted are these: NADP+ titration; C-terminal substrate-pocket mutant.

Test [3] concerns the target T3, 3β-OH-Δ^5-6-cholesterol-5β-reductase (5βChR); putative cholesterol dehydrogenase (Limosilactobacillus fermentum, UniProt A0ABF7R4H0, T187A).
T3 sequence (A0ABF7R4H0 1-249 T187A): T1 sequence (A0ABF7R4H0 1-249 F190A) with T187A, A190F
The conditions noted are these: NADP+ titration; C-terminal substrate-pocket mutant.

In test [4] the target is T4, 3β-OH-Δ^5-6-cholesterol-5β-reductase (5βChR); putative cholesterol dehydrogenase (Limosilactobacillus fermentum, UniProt A0ABF7R4H0, Y152A).
T4 sequence (A0ABF7R4H0 1-249 Y152A): T1 sequence (A0ABF7R4H0 1-249 F190A) with Y152A, A190F
Conditions: catalytic tetrad mutant.

Test [5] has as its target T5, 3β-OH-Δ^5-6-cholesterol-5β-reductase (5βChR); putative cholesterol dehydrogenase (Limosilactobacillus fermentum, UniProt A0ABF7R4H0, S139A).
T5 sequence (A0ABF7R4H0 1-249 S139A): T1 sequence (A0ABF7R4H0 1-249 F190A) with S139A, A190F
The conditions noted are these: catalytic tetrad mutant.

Consider `NC(=O)c1ccc[n+]([C@@H]2O[C@H](COP(=O)(O)OP(=O)(O)OC[C@H]3O[C@@H](n4cnc5c(N)ncnc54)[C@H](OP(=O)(O)O)[C@@H]3O)[C@@H](O)[C@H]2O)c1` [NADP^+], for which the Kd in test [1] was 5.2 µM; in test [2] it was 7.49 µM; in test [3] it was 8.77 µM.

Regarding `CC(C)CCC[C@@H](C)[C@H]1CC[C@H]2[C@@H]3CC=C4C[C@@H](O)CC[C@]4(C)[C@H]3CC[C@]12C` [cholesterol], the Kd was 4.44 µM in test [4] and 24.8 µM in test [5].

By Kd is commonly meant the constant that tells how readily two partners part at equilibrium.
